In one experiment the target is human TK1 (Homo sapiens (Human), UniProt P06870). Nature of the experiment: Inhibition of TK1 (Ki). The conditions noted are these: column head prints IC50, text above the table says Ki values. Format: biochemical. Here is the method: The ability of compounds of formula (I) to inhibit plasma kallikrein (PKK), Factor Xlla (FXIIa), Factor Xla (FXIa), Factor Xa (FXa), Factor Ila (alpha-thrombin; FIIa), plasmin, trypsin, tissue kallikrein 1 (TK1), Factor VIIa (FVIIa), or FVIIa complexed with Tissue Factor, phospholipids and CaCl2 (FVIIa/TF/PL/CaCl2) was determined using the following biochemical assays in assay buffer (100 mM Tris, 150 mM NaCL, adjusted to a pH of 7.8 with HCl, and containing 0.1% (w/v) BSA and 0.05% (v/v) Tween20) in the presence of 1% (v/v) DMSO: EVALUATION OF THE INHIBITION OF PKK USING AN ENDPOINT ASSAY Human PKK (0.01 U/mL; Enzyme Research Laboratories) or rat PKK (0.625 nM; produced in-house) was incubated for 1 h at room temperature with 0.10 μM fluorogenic substrate H-Pro-Phe-Arg-AMC (11295 from Bachem) and various concentrations of the test compound in assay buffer. Subsequently, PPACK II (Calbiochem) was added as a stop solution to achieve a final concentration of 1 μM and fluorescence was measured using an Envision Reader (PerkinElmer) with the wavelength excitation setting of 355 nm and the wavelength emission setting of 460 nm.
Sequence of human TK1 (P06870 25-262): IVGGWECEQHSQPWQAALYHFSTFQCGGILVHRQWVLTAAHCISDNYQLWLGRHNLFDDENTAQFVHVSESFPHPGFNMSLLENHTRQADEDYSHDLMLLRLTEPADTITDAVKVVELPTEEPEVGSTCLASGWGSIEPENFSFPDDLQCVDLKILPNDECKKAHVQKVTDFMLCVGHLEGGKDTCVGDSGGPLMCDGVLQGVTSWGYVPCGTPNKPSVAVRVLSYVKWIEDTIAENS
Prior to the assay, human TK1 (R&D Systems) was activated by incubation with human trypsin (Calbiochem) in a 1:10,000 ratio for 15 min at 37° C. For assaying TK1 inhibitory activity, activated TK1 (31.25 nM or 1 U/mL) was incubated at 24° C. with 0.1 mM fluorogenic substrate H-Pro-Phe-Arg-AMC (11295 from Bachem) and various concentrations of the test compound in assay buffer. Measurements were performed in a kinetic interval every 2nd minute for 16 min using a Spectramax M5 (Molecular Devices) with the following settings of the wavelength excitation of 350 nm and wavelength emission of 450 nm.
The average Vmax values for the time interval from 2 to 12 min after initiation of the assay (expressed as either delta OD/min for assays using a chromogenic substrate or delta RFU/min for assays using a fluorigenic substrate, respectively) were plotted versus the Log of the concentration in molar of the evaluated inhibitor compound. The pIC50 values were then fitted using a four-parametric fitting procedure using GraphPad Prism (version 6; GraphPad Software, Inc.). Respective Ki values were obtained by correction of the IC50 values for the respective KM value of the used substrate (see Table A for the obtained KM values of the used substrates) using the following formula: […]
Where the IC50 is in molar and the KM value in mM.

The target in the next experiment is Human PKK (Homo sapiens (Human), UniProt P03952). Kind of experiment: Inhibition of PKK, endpoint assay (human PKK). Format: biochemical. The following applies: substrate H-Pro-Phe-Arg-AMC, 1 h room temperature. Here is the method:
Subsequently, PPACK II (Calbiochem) was added as a stop solution to achieve a final concentration of 1 μM and fluorescence was measured using an Envision Reader (PerkinElmer) with the wavelength excitation setting of 355 nm and the wavelength emission setting of 460 nm.

The record followed here is US10695334B2, “Heteroaromatic carboxamide derivatives as plasma kallikrein inhibitors” (Boehringer Ingelheim International GmbH, priority 2018, dated 2020).

pIC50: −log10 of the molar value. Counter-ions that a name gives are not always drawn.

Sequence of Human PKK (P03952 391-638): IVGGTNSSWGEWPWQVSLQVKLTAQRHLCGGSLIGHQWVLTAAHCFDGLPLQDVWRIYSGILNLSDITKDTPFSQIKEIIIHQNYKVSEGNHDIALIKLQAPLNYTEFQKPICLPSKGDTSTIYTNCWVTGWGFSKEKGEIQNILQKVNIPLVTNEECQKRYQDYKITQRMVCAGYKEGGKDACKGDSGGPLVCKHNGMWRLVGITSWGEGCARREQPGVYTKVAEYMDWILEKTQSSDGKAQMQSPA
Sequence of Human PKK (P03952 20-390 partner): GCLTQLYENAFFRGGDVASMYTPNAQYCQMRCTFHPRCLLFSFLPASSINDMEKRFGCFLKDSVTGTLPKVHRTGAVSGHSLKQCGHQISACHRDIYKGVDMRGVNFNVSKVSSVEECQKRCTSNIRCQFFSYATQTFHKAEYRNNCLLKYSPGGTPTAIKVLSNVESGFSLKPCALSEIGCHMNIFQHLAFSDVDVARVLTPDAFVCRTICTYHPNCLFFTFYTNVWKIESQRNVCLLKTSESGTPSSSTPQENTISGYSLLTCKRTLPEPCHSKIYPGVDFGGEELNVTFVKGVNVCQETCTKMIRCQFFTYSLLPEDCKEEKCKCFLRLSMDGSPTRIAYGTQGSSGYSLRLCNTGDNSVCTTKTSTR

Take `Cc1nc(N2CC3(CC3)C2)ncc1Cn1cnc(C(=O)N[C@@H]2CCc3c(C)n[nH]c32)c1` [Example 93, 1-[(2-{5-Azaspiro[2.3]hexan-5-yl}-4-methyl-pyrimidin-5-yl)methyl]-N-[(6R)-3-methyl-2H,4H,5H,6H-cyclopenta[c]pyrazol-6-yl]-1H-imidazole-4-carboxamide]: the negative-log IC50 (pIC50) (in general, the negative decadic logarithm of the IC50, by convention in mol/L) at human TK1 was < 5.00; on Human PKK, 8.40.

Regarding `Cc1nc(N2CC3CC3C2)ccc1Cc1ccc(C(=O)N[C@@H]2CCc3c(C)n[nH]c32)[nH]1` (stereo partly drawn) [Example 109, 5-[(6-{3-Azabicyclo[3.1.0]hexan-3-yl}-2-methylpyridin-3-yl)methyl]-N-[(6R)-3-methyl-1H,4H,5H,6H-cyclopenta[c]pyrazol-6-yl]-1H-pyrrole-2-carboxamide], the results for the pIC50 against human TK1 and at Human PKK were < 5.00 and 8.52, respectively.

On to `Cc1nc(N2CCC3(CC3)C2)ccc1Cn1cc(C(=O)N[C@@H]2CCc3c2n[nH]c3C)cn1` [Example 45, 1-[(6-{5-Azaspiro[2.4]heptan-5-yl]-2-methylpyridin-3-yl)methyl]-N-[(6R)-3-methyl-2H,4H,5H,6H-cyclopenta[c]pyrazol-6-yl]-1H-pyrazole-4-carboxamide], for which the pIC50 was < 5.00 at human TK1 and 8.40 on Human PKK.

With `Cc1nc(N2CC3C(C2)C3(F)F)ccc1Cn1cnc(C(=O)N[C@@H]2CCc3c2n[nH]c3C)c1` (stereo partly drawn) [Example 89, 1-[(6-{6,6-Difluoro-3-azabicyclo[3.1.0]hexan-3-yl}-2-methylpyridin-3-yl)methyl]-N-[(6R)-3-methyl-2H,4H,5H,6H-cyclopenta[c]pyrazol-6-yl]-1H-imidazole-4-carboxamide], the pIC50 against human TK1 is < 5.00; against Human PKK, 9.22.

`Cc1nc(N2CC3CC3C2)ccc1Cn1cnc(C(=O)N[C@@H]2CCc3c2n[nH]c3C)c1` (stereo partly drawn) [Example 90, 1-[(6-{3-Azabicyclo[3.1.0]hexan-3-yl}-2-methyl-pyridin-3-yl)methyl]-N-[(6R)-3-methyl-2H,4H,5H,6H-cyclopenta[c]pyrazol-6-yl]-1H-imidazole-4-carboxamide]: the pIC50 against human TK1 was < 5.00; on Human PKK, 9.10.

For `Cc1nc(N2CC3CC3C2C)ccc1Cn1cc(C(=O)N[C@@H]2CCc3c2n[nH]c3C)cn1` (stereo partly drawn) [Example 82, N-[(6R)-3-Methyl-2H,4H,5H,6H-cyclopenta[c]pyrazol-6-yl]-1-[(2-methyl-6-{2-methyl-3-azabicyclo[3.1.0]hexan-3-yl}pyridin-3-yl)methyl]-1H-pyrazole-4-carboxamide], the pIC50 was < 5.00 against human TK1 and 8.70 against Human PKK.

Take `Cc1nc(N2CC3(CC3)C2)ncc1Cn1cc(C(=O)N[C@@H]2CCc3c(C)n[nH]c32)c2cncnc21` [Example 33, 7-[(2-{5-Azaspiro[2.3]hexan-5-yl}-4-methyl-pyrimidin-5-yl)methyl]-N-[(6R)-3-methyl-1H,4H,5H,6H-cyclopenta[c]pyrazol-6-yl]-7H-pyrrolo[2,3-d]pyrimidine-5-carboxamide]: the pIC50 was < 5.00 at human TK1 and 8.52 at Human PKK.

In the case of `Cc1nc(N2CCC3CC3C2)ccc1Cn1cc(C(=O)N[C@@H]2CCc3c2n[nH]c3C)cn1` (stereo partly drawn) [Example 48, 1-[(6-{3-Azabicyclo[4.1.0]heptan-3-yl}-2-methylpyridin-3-yl)methyl]-N-[(6R)-3-methyl-2H,4H,5H,6H-cyclopenta[c]pyrazol-6-yl]-1H-pyrazole-4-carboxamide], the pIC50 was < 5.00 against human TK1 and 8.30 against Human PKK.

`Cc1nc(N2CC3C(C2)C3(F)F)ncc1Cn1cc(C(=O)N[C@@H]2CCc3c2n[nH]c3C)cn1` (stereo partly drawn) [Example 84, 1-[(2-{6,6-Difluoro-3-azabicyclo[3.1.0]hexan-3-yl}-4-methylpyrimidin-5-yl)methyl]-N-[(6R)-3-methyl-2H,4H,5H,6H-cyclopenta[c]pyrazol-6-yl]-1H-pyrazole-4-carboxamide, TFA salt] had a pIC50 at Human PKK of 8.70.

For the compound `Cc1nc(N2CC3(CC3)C2)ncc1Cn1cc(C(=O)N[C@@H]2CCc3c(C)n[nH]c32)c(C)n1` [Example 29, 1-[(2-{5-Azaspiro[2.3]hexan-5-yl}-4-methyl-pyrimidin-5-yl)methyl]-3-methyl-N-[(6R)-3-methyl-1H,4H,5H,6H-cyclpenta[c]pyrazol-6-yl]-1H-pyrazole-4-carboxamide], at Human PKK, the pIC50 was 8.15.

In turn, `Cc1nc(N2CC3(CC3)C2)ccc1Cn1cc(C(=O)N[C@@H]2CCc3c(C)n[nH]c32)c(C)n1` [Example 24, 1-[(6-{5-Azaspiro[2.3]hexan-5-yl}-2-methylpyridin-3-yl)methyl]-3-methyl-N-[(6R)-3-methyl1H,4H,5H,6H-cyclopenta[c]pyrazol-6-yl]-1H-pyrazole-4-carboxamide] showed a pIC50 against Human PKK of 8.70.

`Cc1nc(N2CC3C(C2)C3(C)C)ccc1Cn1cc(C(=O)N[C@@H]2CCc3c2n[nH]c3C)cn1` (stereo partly drawn) [Example 80, 1-[(6-{6,6-Dimethyl-3-azabicyclo[3.1.0]hexan-3-yl]-2-methylpyridin-3-yl)methyl]-N-[(6R)-3-methyl-2H,4H,5H,6H-cyclopenta[c]pyrazol-6-yl]-1H-pyrazole-4-carboxamide] had a pIC50 on Human PKK of 8.05.

`Cc1nc(N2CC3CC(C2)C3O)ccc1Cn1cc(C(=O)N[C@@H]2CCc3c2n[nH]c3C)cn1` (stereo partly drawn) [Example 39, 1-[(6-{6-Hydroxy-3-azabicyclo[3.1.1]heptan-3-yl]-2-methylpyridin-3-yl)methyl]-N-[(6R)-3-methyl-2H,4H,5H,6H-cyclopenta[c]pyrazol-6-yl]-1H-pyrazole-4-carboxamide] showed a negative-log IC50 (pIC50) against Human PKK of 8.05.

At Human PKK, `Cc1nc(N2CCC3(C2)CC3(F)F)ccc1Cn1cc(C(=O)N[C@@H]2CCc3c2n[nH]c3C)cn1` (stereo partly drawn) [Example 78, 1-[(6-{1,1-Difluoro-5-azaspiro[2.4]heptan-5-yl}-2-methylpyridin-3-yl)methyl]-N-[(6R)-3-methyl-2H,4H,5H,6H-cyclopenta[c]pyrazol-6-yl]-1H-pyrazole-4-carboxamide] had a pIC50 of 8.05.

Turning to `Cc1nc(N2CC3CC3C2)ccc1Cn1cc(C(=O)N[C@H]2CCc3c(C)n[nH]c32)cn1` (stereo partly drawn) [Example 2, 1-[(6-{3-Azabicyclo[3.1.0]hexan-3-yl}-2-methylpyridin-3-yl)methyl]-N-[(6S)-3-methyl-1H,4H,5H,6H-cyclopenta[c]pyrazol-6-yl]-1H-pyrazole-4-carboxamide], the pIC50 at Human PKK is 7.49.

On Human PKK, `Cc1nc(N2CC3CC3C2)ccc1Cn1ncc(C(=O)N[C@@H]2CCc3c(C)n[nH]c32)n1` (stereo partly drawn) [Example 10, 2-[(6-{3-Azabicyclo[3.1.0]hexan-3-yl}-2-methylpyridin-3-yl)methyl]-N-[(6R)-3-methyl-1H,4H,5H,6H-cyclopenta[c]pyrazol-6-yl]-2H-1,2,3-triazole-4-carboxamide] showed a pIC50 of 7.59.

In the case of `COCc1nn(Cc2cnc(N3CC4(CC4)C3)nc2C)cc1C(=O)N[C@@H]1CCc2c(C)n[nH]c21` [Example 31, 1-[(2-{5-Azaspiro[2.3]hexan-5-yl}-4-methyl-pyrimidin-5-yl)methyl]-3-(methoxymethyl)-N-[(6R)-3-methyl-1H,4H,5H,6H-cyclopenta[c]pyrazol-6-yl]-1H-pyrazole-4-carboxamide], the pIC50 at Human PKK is 8.00.

For the compound `Cc1nc(N2CC(C(C)C)C2)ccc1Cn1cc(C(=O)N[C@@H]2CCc3c2n[nH]c3C)cn1` [Example 70, N-[(6R)-3-Methyl-2H,4H,5H,6H-cyclopenta[c]pyrazol-6-yl]-1-({2-methyl-6-[3-(propan-2-yl)azetidin-1-yl]pyridin-3-yl}lmethyl)-1H-pyrazole-4-carboxamide], the pIC50 against Human PKK was 7.89.
